In patent publication US20130102595A1 (Curis, Inc., priority 2011, published 2013):

Legend:
[1] = test system: HDACs (HeLa cell nuclear extracts); assay: HDAC enzymatic activity, Biomol Color de Lys system; format: biochemical; conditions: 1 hour, 25° C.
How it was run: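 IC50 from sigmoidal fit of developer-terminated fluorescence (ex 350-380/em 440-460 nm). Reaction: 1 h at room temperature (25 °C), HeLa nuclear extract as HDAC source, artificial substrate, buffer of 50 mM Tris/Cl pH 8.0 with 137 mM NaCl, 2.7 mM KCl and 1 mM MgCl2.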

[2] = target: T1, PI3Kα (p110α/p85α) (Homo sapiens, UniProt P42336); assay: PI3Kα ADP-Glo assay; format: biochemical; conditions: 20 μM PIP2, 10 μM ATP, 30 minutes
T1 construct: GST (N); made in house; host or cells: Baculovirus-infected Sf9 cells
How it was run: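 Luminescent ADP-Glo detection, after depletion of residual ATP, quantified ADP made by PI3Kα phosphorylating 20 μM PIP2 at 10 μM ATP. The kinase step ran 30 min at room temperature in HEPES pH 7.4 with MgCl2, DTT and orthovanadate, using baculovirus/Sf9-expressed full-length p110α/p85α complex.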

[3] = test system: CFPAC-1; assay: Cell proliferation assay (CellTiter-Glo); format: cell-based; conditions: Homo sapiens, Pancreas, 72 hours, 0.5% fetal bovine serum, read-out: antiproliferative activity IC50, CFPAC-1
How it was run: (§1)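 Plate 5,000 to 10,000 cells per well with compound at several concentrations. Incubate 72 hours in medium with 0.5% fetal bovine serum. Add lysis/luciferase reagent, incubate 30 minutes, and measure luminescence as ATP content.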

[4] = test system: CaPan2; assay: Cell proliferation assay (CellTiter-Glo); format: cell-based; conditions: Homo sapiens, Capan-2; Pancreas; 72 hours, 0.5% fetal bovine serum; read-out: antiproliferative activity IC50, CaPan2
How it was run: as §1

[5] = test system: Calu6; assay: Cell proliferation assay (CellTiter-Glo); format: cell-based; conditions: Homo sapiens, Calu-6; NSCLC; 72 hours, 0.5% fetal bovine serum; read-out: antiproliferative activity IC50, Calu6
How it was run: as §1

[6] = test system: H460; assay: Cell proliferation assay (CellTiter-Glo); format: cell-based; conditions: Homo sapiens, NCI-H460; NSCLC; 72 hours, 0.5% fetal bovine serum; read-out: antiproliferative activity IC50, H460
How it was run: as §1

[7] = test system: HCT116; assay: Cell proliferation assay (CellTiter-Glo); format: cell-based; conditions: Homo sapiens, HCT-116; Colon; 72 hours, 0.5% fetal bovine serum; read-out: antiproliferative activity IC50, HCT116
How it was run: as §1

[8] = test system: MDA-MB-231; assay: Cell proliferation assay (CellTiter-Glo); format: cell-based; conditions: Homo sapiens, Breast, 72 hours, 0.5% fetal bovine serum, read-out: antiproliferative activity IC50, MDA-MB-231
How it was run: as §1

[9] = test system: MiaPaca1; assay: Cell proliferation assay (CellTiter-Glo); format: cell-based; conditions: Pancreas; 72 hours, 0.5% fetal bovine serum; read-out: antiproliferative activity IC50, MiaPaca1
How it was run: as §1

[10] = test system: PANC-1; assay: Cell proliferation assay (CellTiter-Glo); format: cell-based; conditions: Homo sapiens, Pancreas, 72 hours, 0.5% fetal bovine serum, read-out: antiproliferative activity IC50, PANC-1
How it was run: as §1

[11] = test system: SW1990; assay: Cell proliferation assay (CellTiter-Glo); format: cell-based; conditions: Homo sapiens, Pancreas, 72 hours, 0.5% fetal bovine serum, read-out: antiproliferative activity IC50, SW1990
How it was run: as §1

[12] = test system: WiDr; assay: Cell proliferation assay (CellTiter-Glo); format: cell-based; conditions: Homo sapiens, Colon, 72 hours, 0.5% fetal bovine serum, read-out: antiproliferative activity IC50, WiDr
How it was run: as §1

[13] = test system: A549; assay: Cell proliferation assay (CellTiter-Glo); format: cell-based; conditions: Homo sapiens, NSCLC, 72 hours, 0.5% fetal bovine serum, read-out: antiproliferative activity IC50, A549
How it was run: as §1

[14] = test system: H2122; assay: Cell proliferation assay (CellTiter-Glo); format: cell-based; conditions: Homo sapiens, NCI-H2122; NSCLC; 72 hours, 0.5% fetal bovine serum; read-out: antiproliferative activity IC50, H2122
How it was run: as §1

[15] = test system: H292; assay: Cell proliferation assay (CellTiter-Glo); format: cell-based; conditions: Homo sapiens, NCI-H292; NSCLC; 72 hours, 0.5% fetal bovine serum; read-out: antiproliferative activity IC50, H292
How it was run: as §1

[16] = test system: H358; assay: Cell proliferation assay (CellTiter-Glo); format: cell-based; conditions: Homo sapiens, NCI-H358; NSCLC; 72 hours, 0.5% fetal bovine serum; read-out: antiproliferative activity IC50, H358
How it was run: as §1

[17] = test system: T-84; assay: Cell proliferation assay (CellTiter-Glo); format: cell-based; conditions: Homo sapiens, T84; Colon; 72 hours, 0.5% fetal bovine serum; read-out: antiproliferative activity IC50, T-84
How it was run: as §1

T1 sequence (P42336 whole entry): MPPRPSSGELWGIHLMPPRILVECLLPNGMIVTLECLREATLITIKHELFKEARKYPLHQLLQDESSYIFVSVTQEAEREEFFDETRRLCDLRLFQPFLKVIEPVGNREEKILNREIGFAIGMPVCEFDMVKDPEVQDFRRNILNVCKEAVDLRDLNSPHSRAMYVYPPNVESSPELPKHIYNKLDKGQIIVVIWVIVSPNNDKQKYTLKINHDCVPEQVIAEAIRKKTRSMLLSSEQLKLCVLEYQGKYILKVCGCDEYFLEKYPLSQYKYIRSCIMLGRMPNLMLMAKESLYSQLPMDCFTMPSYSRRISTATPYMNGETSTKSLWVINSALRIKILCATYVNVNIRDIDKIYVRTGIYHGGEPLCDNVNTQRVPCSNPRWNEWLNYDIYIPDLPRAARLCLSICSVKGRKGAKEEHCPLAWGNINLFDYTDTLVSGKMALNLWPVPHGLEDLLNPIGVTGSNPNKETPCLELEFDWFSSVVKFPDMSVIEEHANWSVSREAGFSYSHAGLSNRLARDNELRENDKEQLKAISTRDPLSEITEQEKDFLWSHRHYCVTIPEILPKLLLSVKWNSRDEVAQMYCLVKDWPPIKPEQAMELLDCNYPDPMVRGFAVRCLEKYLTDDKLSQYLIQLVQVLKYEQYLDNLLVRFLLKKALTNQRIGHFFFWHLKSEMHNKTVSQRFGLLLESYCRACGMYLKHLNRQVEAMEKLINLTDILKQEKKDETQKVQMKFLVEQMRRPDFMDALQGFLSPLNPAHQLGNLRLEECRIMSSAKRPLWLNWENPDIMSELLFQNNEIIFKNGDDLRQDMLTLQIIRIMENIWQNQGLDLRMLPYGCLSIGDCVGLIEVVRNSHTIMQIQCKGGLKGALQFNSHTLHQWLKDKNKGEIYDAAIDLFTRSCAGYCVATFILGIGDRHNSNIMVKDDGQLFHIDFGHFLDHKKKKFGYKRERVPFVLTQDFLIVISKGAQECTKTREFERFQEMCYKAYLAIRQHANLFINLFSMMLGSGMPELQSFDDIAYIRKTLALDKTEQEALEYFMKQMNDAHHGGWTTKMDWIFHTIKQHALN
T1 sequence (P27986 whole entry partner): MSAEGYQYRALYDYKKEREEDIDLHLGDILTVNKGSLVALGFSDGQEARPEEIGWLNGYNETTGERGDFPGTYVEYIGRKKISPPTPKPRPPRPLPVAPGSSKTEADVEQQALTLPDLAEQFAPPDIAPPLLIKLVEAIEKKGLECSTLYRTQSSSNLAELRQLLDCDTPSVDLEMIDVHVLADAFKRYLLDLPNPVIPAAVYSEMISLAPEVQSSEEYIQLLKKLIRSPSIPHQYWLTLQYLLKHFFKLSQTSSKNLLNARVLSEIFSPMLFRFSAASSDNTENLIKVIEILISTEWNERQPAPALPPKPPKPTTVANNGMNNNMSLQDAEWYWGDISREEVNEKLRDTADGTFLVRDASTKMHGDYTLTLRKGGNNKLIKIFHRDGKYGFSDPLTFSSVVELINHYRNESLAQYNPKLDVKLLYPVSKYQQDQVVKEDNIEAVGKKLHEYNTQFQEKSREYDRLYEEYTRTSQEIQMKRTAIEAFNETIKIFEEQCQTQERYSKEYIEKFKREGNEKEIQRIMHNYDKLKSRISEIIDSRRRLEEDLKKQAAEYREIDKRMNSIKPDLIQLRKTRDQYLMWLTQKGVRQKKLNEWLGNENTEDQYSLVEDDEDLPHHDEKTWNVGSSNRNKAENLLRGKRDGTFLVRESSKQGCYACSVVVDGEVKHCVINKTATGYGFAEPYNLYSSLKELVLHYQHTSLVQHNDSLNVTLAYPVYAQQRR

| SMILES | IC50 [1] | IC50 [2] | IC50 [3] | IC50 [4] | IC50 [5] | IC50 [6] | IC50 [7] | IC50 [8] | IC50 [9] | IC50 [10] | IC50 [11] | IC50 [12] | IC50 [13] | IC50 [14] | IC50 [15] | IC50 [16] | IC50 [17] |
| --- | --- | --- | --- | --- | --- | --- | --- | --- | --- | --- | --- | --- | --- | --- | --- | --- | --- |
| CN(Cc1cc2nc(-c3cccc4[nH]ncc34)nc(N3CCOCC3)c2s1)c1ncc(C(=O)NO)cn1 [Compound 54, 2-(((2-(1H-indazol-4-yl)-4-morpholinothieno[3,2-d]pyrimidin-6-yl)methyl)(methyl)amino)-N-hydroxypyrimidine-5-carboxamide] | < 100 nM | < 100 nM | 100 to 1000 nM | 10 to 100 nM | 10 to 100 nM | 100 to 1000 nM | < 10 nM | 10 to 100 nM | 10 to 100 nM | 10 to 100 nM | 10 to 100 nM | 10 to 100 nM | – | – | – | – | – |
| CNc1ccc(-c2nc(N3CCOCC3)c3sc(CN(C)c4ncc(C(=O)NO)cn4)cc3n2)cn1 [Compound 111, N-Hydroxy-2-(methyl((2-(6-(methylamino)pyridin-3-yl)-4-morpholinothieno[3,2-d]pyrimidin-6-yl)methyl)amino)pyrimidine-5-carboxamide] | < 100 nM | < 100 nM | 10 to 100 nM | 10 to 100 nM | 10 to 100 nM | 10 to 100 nM | < 10 nM | 100 to 1000 nM | < 10 nM | 10 to 100 nM | < 10 nM | 10 to 100 nM | 10 to 100 nM | < 10 nM | < 10 nM | < 10 nM | 10 to 100 nM |
| CN(Cc1cc2nc(-c3ccc(N)cc3)nc(N3CCOCC3)c2s1)c1ncc(C(=O)NO)cn1 [Compound 150, 2-(((2-(4-aminophenyl)-4-morpholinothieno[3,2-d]pyrimidin-6-yl)methyl)(methyl)amino)-N-hydroxypyrimidine-5-carboxamide] | < 100 nM | < 100 nM | 10 to 100 nM | < 10 nM | < 10 nM | 10 to 100 nM | < 10 nM | < 10 nM | < 10 nM | 10 to 100 nM | < 10 nM | 10 to 100 nM | < 10 nM | < 10 nM | < 10 nM | < 10 nM | 10 to 100 nM |
